For data set [1], the system named is TGF–β1–induced NHLF myofibroblasts. Put plainly: HCA, NHLF myofibroblast reversal assay. Type of data set: cell-based. Particulars: Homo sapiens; reversal assay: 24 h 5 ng/ml TGF–β1, washed, 72 h compound. As for the experimental part:
Each well of a 384–well clear bottom microtiter plate was coated with 0.1% laminin solution for 60 min at 37°C and rinsed once with PBS. NHLF cells were seeded at a density of 750 cells / well in a volume of 40 μl FGM–2 medium and grown for 24 h at 37°C, 5% CO2 and 95% relative humidity. The plate was washed 3 times with starvation medium, e.g. fibroblast basal medium (FBM, Lonza) supplemented with 0.1% faf BSA, 100 units / ml of penicillin and 100 μg / ml of streptomycin and 250 ng / ml amphotericin B, and then starved for 24 h in 30 μl volume. NHLF were differentiated into myofibroblasts by incubation with 5 ng / ml TGF–β1 (from a stock of 20 μg / ml in 4 mM HCl, 1 mg / ml BSA) for 48 h. Compounds were prepared as 5x stocks in starvation medium and added to the starved cells to a final 1x concentration concomitant with TGF–β1 addition. The final DMSO concentration in the assay was 0.6% in all wells. 48 h after TGF–β1 addition, the medium was removed and the cells were fixed in methanol for 10 min at room temperature (RT). After fixation, cells were washed 3 times with 1 x PBS and either stored at 4°C for up to 3 days or further processed. The fixed cells were blocked with 10% goat serum in PBS, 0.25% Tween–20 for 60 min at RT. The primary antibodies, i.e., mouse monoclonal anti–α–SMA (Sigma–Aldrich) and rabbit anti–FN antibody (Sigma–Aldrich), were diluted 1:400 in 10% goat serum in PBS, 0.25% Tween–20 and the fixed cells were incubated with the antibodies for 60 min at RT. After washing the cells 3 times with 1 x PBS, 0.25% Tween–20 the detection antibodies, i.e., goat anti–mouse AlexaFluor 488 (Invitrogen) and goat anti–rabbit AlexaFluor 647 (Invitrogen) were diluted 1:1000 in 1 x PBS, 0.25% Tween–20 and incubated for 1 h at RT together with 1 μg / ml DAPI to stain nuclei and HCS CellMask Orange Stain to label the entire cell. The stained cells were washed 3 times with 1 x PBS containing 0.25% Tween–20, followed by three washes in 1 x PBS, sealed with backing tape and stored at 4°C. Images were acquired on the Opera Phenix confocal high–content screening system (Perkin Elmer) using the 20–x water immersion lens.
Image analysis: The image data acquired with the HCS system were uploaded to ORBIT, an open source image analysis software developed at Idorsia Pharmaceuticals Ltd (http://www.orbit.bio), and analyzed using 288 CPUs in parallel on our computing grid with the ORBIT Cell–Classifier framework using an appropriate CellProfiler pipeline. DAPI stained nuclei were used to identify cells. α–SMA and FN regions were then identified and mapped to the corresponding nuclei for background correction, cell segmentation and cell feature computation to identify, classify and weigh over 400 features per cell. The computed features (S1 Table) comprise, but are not limited to, granularity, intensity, texture, area, shape and solidity of a cell in both α–SMA–and FN–expressing regions. The 0% compound effect (5 ng / ml TGF–β1) and the 100% compound effect (0 ng / ml TGF–β1) controls, were used to train and validate a support vector machine (SVM), a supervised learning model with associated learning algorithm that, once successfully validated, was applied to every cell in every well of the assayed microtiter plate. The SVM allowed autonomous weighting and classification of the characteristics and thus enabled the classifier to decide which characteristics were most relevant for the differentiation of the cell types. […] The classification of each cell was aggregated to a cell type ratio per well, represented as the computed percentage effect value per well indicative of the degree of myofibroblast differentiation. E.g. 100% equals complete myofibroblast differentiation, 0% indicates a pure fibroblast population without any signs of differentiation.
To identify compounds with potential to revert differentiated myofibroblasts to fibroblasts the assay procedures were modified.

Data set [2] shares this test system. Kind of data set: cells. Type of data set: cell-based. As for the experimental part: To measure dynamic cell shape and adhesion changes during fibrotic transdifferentiation, NHLF were seeded at a density of 20,000 cells per well in FGM–2 growth medium (Lonza) containing 100 units / ml of penicillin and 100 μg / ml of streptomycin into E–plates with continued impedance signal measurement (xCELLigence system, Roche Applied Science). After overnight growth, the medium was exchanged for FBM (Lonza) supplemented with 100 units / ml of penicillin and 100 μg / ml of streptomycin and 0.1% faf BSA and cells were starved for 32 h. Compound dilution series were added and myofibroblast transition was induced by adding TGF–β1 at a concentration of 5 ng / ml, followed by continued impedance sampling for up to 48 h. For data analysis, impedance raw traces were normalized to the time point of compound addition and the baseline response (DMSO, non–TGF–β1 treated cells) was subtracted. In some cases, impedance values at defined time points were used to generate concentration–response curves to determine compound potency and efficacy using GraphPad Prism software version 7 (GraphPad Software Inc).
To identify compounds with potential to revert differentiated myofibroblasts to fibroblasts the assay procedures were modified. After 24 h starvation, NHLF cells were stimulated with 5 ng / ml TGF–β1 for 24 h. At t = 24 h TGF–β1 was removed and either vehicle (DMSO) or compounds were added and incubated with the cells for a further 72 h.

Setting [3] is: reversal assay: 24 h 5 ng/ml TGF–β1, washed, then compound, impedance data at t = 20 h.

For `COC(=O)c1ccc2c(c1)NC(=O)/C2=C(\Nc1ccc(N(C)C(=O)CN2CCN(C)CC2)cc1)c1ccccc1` [Nintedanib], the values for the IC50 in data set [1] and in data set [2] (setting [3]) were 6900 nM and more than 10000 nM, respectively.

As to `CCCCC[C@H](O)/C=C/[C@H]1[C@H](O)CC(=O)[C@@H]1C/C=C\CCCC(=O)O` [PGE2, prostaglandin E2], the IC50 in data set [1] turned out to be 145 nM; in data set [2] (setting [3]) it was 0.7 nM.

`CC(C)(C)c1ccc(CN(Cc2cccc(OCC(=O)O)c2)S(=O)(=O)c2cccnc2)cc1` [Evatanepag]: the results for the IC50 in data set [1] and in data set [2] (setting [3]) were 2300 nM and 14 nM, respectively.

Take `Cc1cccc(-c2[nH]c(CNc3ccccc3F)nc2-c2ccc3ncnn3c2)n1` [EW–7197]: the 50% inhibitory concentration (IC50) was 18000 nM in data set [1]; 47 ± 1 nM in data set [2] (Homo sapiens, reversal assay, impedance at t = 72 h post TGF–β1, n = 2); more than 10000 nM in data set [2] (setting [3]).

Consider `O=C(CC1NCCCC1O)Cn1cnc2cc(Br)c(Cl)cc2c1=O` (stereo not shown) [Halofuginone], for which the values for the 50% inhibitory concentration (IC50) in data set [1] and in data set [2] (setting [3]) were 120 nM and more than 1000 nM, respectively. In addition, the cytotoxic concentration in data set [2] (human, 72 h) is listed as ≥ 10’000 nM.

`C[C@]12CC[C@H](O)C[C@H]1CC[C@@H]1[C@@H]2C[C@@H](O)[C@]2(C)[C@@H](C3=CC(=O)OC3)CC[C@]12O` [Digoxigenin]: the values for the IC50 in data set [1] and in data set [2] (setting [3]) were 76 nM and 140 nM, respectively.

For the molecule `CCCCC[C@H](O)/C=C/[C@H]1[C@H](O)CC(=O)[C@@H]1CCCCCCC(=O)O` [Alprostadil], the IC50 in data set [1] is 280 nM; in data set [2] (setting [3]) it was 0.9 ± 0.2 nM.

The values are drawn from paper PMC6261607, “Novel high–throughput myofibroblast assays identify agonists with therapeutic potential in pulmonary fibrosis that act via EP2 and EP4 receptors” (PLoS ONE, 2018).
